Laboratory results taken from patent publication US4348410A, “Cyclohexane carboxylic acid derivatives” (Nippon Chemiphar Co., Ltd., priority 1979, dated 1982).

Legend:
[1] = tested on: carrageenin-induced inflammation; experiment: Carrageenin-induced inflammation; conditions: Rattus norvegicus, ip, read-out: ED50, inhibition of carrageenin-induced inflammation
[2] = tested on: plasmin; conditions: A. Okano et al, J. Med. Chem., Vol. 15, No. 3, 247 (1972); cited from earlier work
[3] = tested on: Shay ulcers; experiment: Shay ulcers (pylorus ligation); assay type: in vivo, Male Sprague-Dawley strain rats; conditions: for Ulcer Grade 0 (number of rats): 0=no lesion; for Ulcer Grade 1 (number of rats): 1=hemorrhagic suffusion; for Ulcer Grade 2 (number of rats): 2=1-5 small ulcers (<3 mm); for Ulcer Grade 3 (number of rats): 3=many small ulcers (more than 5) or 1 ulcer of marked size; for Ulcer Grade 4 (number of rats): 4=many ulcers of marked size; for Ulcer Grade 5 (number of rats): 5=perforated ulcer
Protocol: The rats were sacrificed 18 hours later by an overdose of ether and the stomach removed. The stomach was incised along the greater curvature and the surface area of each lesion in forestomach was measured by the naked eye. […] 4=many ulcers of marked size 5=perforated ulcer The test drugs were given intraperitoneally, immediately after pylorus ligation.

[4] = tested on: ileum of a guinea pig; experiment: Anti-histamine effect: contraction of ileum induced by histamin dihydrochloride; conditions: 1~5 μg; 10^-6 g/ml histamin dihydrochloride
[5] = target: urokinase (Homo sapiens, UniProt P00749); experiment: Inhibitory effects on urokinase (hydrolysis of N-acetylglycyl lysine methyl ester); assay type: biochemical; conditions: 37° C., 10 minutes; concentration not given
Protocol: The compounds of the formula (I) have excellent inhibitory effects on protease. The inhibitory effects were determined by the following methods: Inhibitory effects of the compounds on urokinase were determined according to the method described by A. J. Joeson et al (Throm. […]. 21, 259-272 (1969)). In particular, inhibitory effects of the compounds on hydrolysis of N-acetylglycyl lysine methyl ester by urokinase were determined (incubated at 37° C. for 10 minutes).

[6] = tested on: ileum of a guinea pig, sensitized with egg albumin; experiment: Contraction of ileum of a guinea pig sensitized with egg albumin, antigen-induced; conditions: 0.50 μg; with 250 μg/ml egg albumin as antigen
[7] = target: thrombin (Bos taurus, UniProt P00735); experiment: Inhibitory effects on thrombin (hydrolysis of p-tosylarginine methyl ester); assay type: biochemical; conditions: 37° C., 10 minutes; concentration not given
Protocol: The compounds of the formula (I) have excellent inhibitory effects on protease. The inhibitory effects were determined by the following methods:
Inhibitory effects of the compounds on thrombin were determined according to the method described by M. Muramatsu et al (The Journal of Biochemistry, Volume 65 (1), 17 (1969)). In particular, inhibitory effects of the compounds on hydrolysis of p-tosylarginine methyl ester by thrombin were examined (incubated at 37° C. for 10 minutes).

[8] = target: chymotrypsin (Bos taurus, UniProt P00766); experiment: Inhibitory effects on chymotrypsin (hydrolysis of N-acetyl-L-tyrosine ethyl ester); assay type: biochemical; conditions: 37° C., 10 minutes; concentration not given
Protocol: The compounds of the formula (I) have excellent inhibitory effects on protease. The inhibitory effects were determined by the following methods: Inhibitory effects on the compounds of chymotrypsin were determined according to the method described by M. […] In particular, inhibitory effects of the compounds on hydrolysis of N-acetyl-L-tyrosine ethyl ester by chymotrypsin were examined (incubated at 37° C. for 10 minutes).

[9] = target: T1, trypsin (Bos taurus, UniProt P00760); experiment: Inhibitory effects on trypsin (hydrolysis of p-tosylarginine methyl ester); assay type: biochemical; conditions: 37° C., 10 minutes; concentration not given
T1 sequence (P00760 24-246): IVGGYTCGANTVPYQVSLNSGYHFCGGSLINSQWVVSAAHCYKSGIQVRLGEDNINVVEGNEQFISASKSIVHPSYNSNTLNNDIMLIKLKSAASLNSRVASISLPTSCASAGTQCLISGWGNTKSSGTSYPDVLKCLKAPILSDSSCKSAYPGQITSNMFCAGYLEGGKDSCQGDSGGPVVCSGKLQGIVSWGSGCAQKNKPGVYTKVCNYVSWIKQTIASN
Protocol: In particular, inhibitory effects of the compounds on hydrolysis of p-tosylarginine methyl ester by trypsin were examined (incubated at 37° C. for 10 minutes).

[10] = tested on: acetic acid ulcers; experiment: Acetic acid ulcers; assay type: in vivo, Male Sprague-Dawley strain rats; conditions: for Ulcer Grade 1 (number of rats): ulcer area 0-10 mm^2; for Ulcer Grade 2 (number of rats): ulcer area 11-20 mm^2; for Ulcer Grade 3 (number of rats): ulcer area 21-30 mm^2; for Ulcer Grade 4 (number of rats): ulcer area 31-40 mm^2; for Ulcer Grade 5 (number of rats): ulcer area >40 mm^2
Protocol: Male Sprague-Dawley strain rats, weighing about 200 g were used. Under ether anesthesia 10% acetic acid solution (0.05 ml) was injected carefully between the serous membrane and the muscle near the pylorus, and the abdomen was closed. Thereafter, the animals were maintained under conditions and administered 1 ml/100 g of each test drug dissolved or suspended in 0.5% carboxymethylcellulose solution p.o. daily×10 starting from the next day of the operation. On the 11th day, the rats were sacrificed under ether anesthesia, and the stomachs were removed. The area of the ulcer was measured and graded into 5 degrees as an ulcer index according to the following method: […]

## N=C(N)NC[C@H]1CC[C@H](C(=O)Oc2ccccc2)CC1
[1]
  ED50: ~200 mg/kg

## N=C(N)NCC1CCC(C(=O)O)CC1 (stereo not shown) [4-guanidinomethylcyclohexanecarboxylic acid]
[2]
  anti-plasmin effects: little anti-plasmin effects

## Cl.N=C(N)NC[C@H]1CC[C@H](C(=O)Oc2ccccc2)CC1 [Compound 3]
[3]; 400 mg/kg i.p.
  Ulcer Grade 0 (number of rats): 11
  Ulcer Grade 1 (number of rats): 4
  Ulcer Grade 2 (number of rats): 5
  Ulcer Grade 3 (number of rats): 0
  Ulcer Grade 4 (number of rats): 0
  Ulcer Grade 5 (number of rats): 0
[4]
  inhibition of the contraction of the ileum induced by histamin dihydrochloride: inhibited completely
[5]
  Inhibition (%) Urokinase: 52%
[6]
  inhibition of the contraction of the ileum sensitized with egg albumin: inhibited completely
[7]
  Inhibition (%) Thrombin: 30%
[8]
  Inhibition (%) Chymotrypsin: 48%
[9]
  Inhibition (%) Trypsin: 42%

## Cl.NC[C@H]1CC[C@H](C(=O)Oc2ccc(CCC(=O)O)cc2)CC1 [Compound A, 4(2hydroxycarbonylethyl)phenyl trans4-aminomethylcyclohexanecarboxylate hydrochloride, reference compound]
[3]; 150 mg/kg i.p.
  Ulcer Grade 0 (number of rats): 2
  Ulcer Grade 1 (number of rats): 0
  Ulcer Grade 2 (number of rats): 3
  Ulcer Grade 3 (number of rats): 1
  Ulcer Grade 4 (number of rats): 4
  Ulcer Grade 5 (number of rats): 0
[3]; 300 mg/kg i.p.
  Ulcer Grade 0 (number of rats): 6
  Ulcer Grade 1 (number of rats): 0
  Ulcer Grade 2 (number of rats): 0
  Ulcer Grade 3 (number of rats): 1
  Ulcer Grade 4 (number of rats): 2
  Ulcer Grade 5 (number of rats): 1
[5]
  Inhibition (%) Urokinase: 32%
[10]; 250 mg/kg p.o. daily×10
  Ulcer Grade 1 (number of rats): 4
  Ulcer Grade 2 (number of rats): 8
  Ulcer Grade 3 (number of rats): 3
  Ulcer Grade 4 (number of rats): 2
  Ulcer Grade 5 (number of rats): 0
[10]; 300 mg/kg p.o. daily×10
  Ulcer Grade 1 (number of rats): 2
  Ulcer Grade 2 (number of rats): 2
  Ulcer Grade 3 (number of rats): 2
  Ulcer Grade 4 (number of rats): 1
  Ulcer Grade 5 (number of rats): 1
[10]; 500 mg/kg p.o. daily×10
  Ulcer Grade 1 (number of rats): 7
  Ulcer Grade 2 (number of rats): 6
  Ulcer Grade 3 (number of rats): 1
  Ulcer Grade 4 (number of rats): 0
  Ulcer Grade 5 (number of rats): 1
[7]
  Inhibition (%) Thrombin: 30%
[8]
  Inhibition (%) Chymotrypsin: 0%
[9]
  Inhibition (%) Trypsin: 65%

## NC[C@H]1CC[C@H](C(=O)O)CC1 [Tranexamic acid, trans-4-aminomethylcyclohexane carboxylic acid]
[2]
  anti-plasmin effects: excellent anti-plasmin effects
